In one assay the test system is NCI-H358 cells. In words: 2D proliferation assay. Type of assay: cell-based, human. The settings on record: standard 2D culture conditions. How it is done:
263 (ATCC® CCL-224™; grown in RPMI 10% FCS) and SK-MEL-28 (ATCC® HTB-
264 72™, grown in EMEM 10% FCS). Cell cultures were incubated at 37 °C and 5% CO2 in
265 a humidified atmosphere, with medium change or subcultivation 2-3 times a week.
269 Cells were lysed in 1x lysis buffer (Cell Signaling #9803) and protein concentration
270 normalized to 10µg/µL. Proteins were separated by SDS-Page and transferred to
271 Nitrocellulose membranes (BioRad) according to standard protocols. Membranes were
273 (Milipore #06-182) and Tubulin (Cell Signaling #2144) in 5% BSA in TBST blocking
274 buffer. After primary antibody incubation membranes were incubated with anti-rabbit
275 IgG secondary antibody (Dako #P0448) and detected with ECL (GE Healthcare Life
278 Compound treatment of cells
279 Synthesized or purchased (ARS 1620) compounds were dissolved in 100% DMSO and
280 stored at a concentration of 10mM at -20°C. Compounds were either serially diluted in
281 medium or directly added to reach the intended final concentration. DMSO was added
282 to control reactions as reference to keep the final DMSO concentration in all samples
285 2D proliferation assay: […]
Quantification of living cells […]
291 manufacturer’s recommendation. Luminescence was read in a 2030 VICTOR X5 (Perkin […]
305 were trypsinized, counted and plated in 60 µL culture medium containing 2% FCS […]

Assay [1] has as its system 4 BRAF(v600E) cell lines (A375, RKO, Colo 201, SK-MEL-28). In words: 2D and 3D proliferation in BRAF V600E control cell lines. The settings on record: low serum, soft agar, or high serum, adherent conditions. Type of assay: cell-based, human. The protocol: 217 The coordinates and structure factors of the structures have been deposited at the
218 Protein Data Bank with the accession codes PDB Code 6GJ5, 6GJ6, 6GJ7, 6GJ8.
221 Measurements of various protein–protein interactions were performed using the Alpha
222 Screen technology developed by Perkin Elmer. Recombinant RAS proteins (H-, N-, K-
223 RAS variants; all KRAS variants are based on KRAS isoform 4B (uniprot id P01116-2);
224 KRAS (G12D) 1-169, N-terminal 6His-tag, C-terminal avi-tag was from Xtal
225 BioStructures, Inc., KRAS (G12C) 1-169, C-terminal avi-tag, biotinylated, mutations:
226 C51S, C80L, C118S, NRAS(wt) 1-172, C-terminal avi-tag, biotinylated; HRAS(wt) 1-
227 166, C-terminal avi-tag, biotinylated). Biotinylation was performed in vitro with
228 recombinant BirA biotin-protein ligase as recommended by the manufacturer (Avidity
229 LLC, Aurora, Colorado, USA). Interacting proteins such as SOS1 (564-1049, N-terminal […]
231 PI3KA- RBD (160-317, N-term-HIS_GST-tag) were expressed as glutathione S […]
245 for 60 min in the dark at room temperature. Single oxygen induced fluorescence was
246 measured at an Enspire multimode plate reader (Perkin Elmer) according to the
247 manufacturer’s recommendations. Data were analyzed using the GraphPad Prism data […]
275 IgG secondary antibody (Dako #P0448) and detected with ECL (GE Healthcare Life […]

The next assay concerns the target GCP-KRAS^G12D,C118S (Homo sapiens, UniProt P01116, C118S/G12D). Briefly: NMR KD, T35 construct (G12D, C118S), GCP-bound. Type of assay: binding. The note with it: versus 17.

Structures are written as SMILES.

Turning to `Cn1cnc(Cn2ccc3ccc(CNCc4[nH]c5ccccc5c4[C@H]4NC(=O)c5ccc(O)cc54)cc32)c1` [Compound 1], the antiproliferative effect result (in the assay with NCI-H358 cells; in assay [1]) was “No antiproliferative effect” throughout.
Regarding `CN(C)Cc1[nH]c2ccccc2c1[C@H]1NC(=O)c2ccc(O)cc21` [Compound 18], the “more potent than nonphenolic matched molecular pair 17” value on GCP-KRAS^G12D,C118S is reported as 6 fold.

Values taken from article PMC6689897, “Drugging an undruggable pocket on KRAS” (Proceedings of the National Academy of Sciences of the …, 2019).
